The results in this text go back to US11254686B1 (Corvus Pharmaceuticals, Inc., priority 2017, dated 2022).

Structures are written as SMILES. Some results are limits rather than exact numbers.

Experiment [1] concerns the target adenosine A2A receptor (Homo sapiens (Human), UniProt P29274). Kind of experiment: Adenosine receptor activity assay (Table 1), A2A activity. It counts as biochemical. Particulars: read-out: Ave A2A cAMP IC50.
Experiment [2] addresses adenosine A2B receptor (Homo sapiens (Human), UniProt P29275). Kind of experiment: Adenosine receptor activity assay (Table 1), A2B activity. In kind it is biochemical. Conditions: for IC50: read-out: Ave A2B cAMP IC50.
The mark [3] stands for this setting: A2A activity to A2B activity (A2A/A2B).
Where [4] appears, read: A2A activity to the A2B activity, A2A/A2B.

adenosine A2A receptor, sequence (P29274 whole entry): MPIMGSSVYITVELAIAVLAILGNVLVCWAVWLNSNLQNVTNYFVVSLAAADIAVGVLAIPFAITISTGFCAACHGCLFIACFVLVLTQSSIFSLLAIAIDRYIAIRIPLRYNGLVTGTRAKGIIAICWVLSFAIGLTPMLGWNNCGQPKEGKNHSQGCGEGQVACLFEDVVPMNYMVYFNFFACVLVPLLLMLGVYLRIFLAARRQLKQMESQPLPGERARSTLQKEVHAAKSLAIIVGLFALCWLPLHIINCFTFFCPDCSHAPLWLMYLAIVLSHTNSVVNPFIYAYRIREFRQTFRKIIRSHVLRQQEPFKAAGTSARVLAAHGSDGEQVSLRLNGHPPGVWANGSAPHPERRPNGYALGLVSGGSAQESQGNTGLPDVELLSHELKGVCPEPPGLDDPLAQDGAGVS
adenosine A2B receptor, sequence (P29275 whole entry): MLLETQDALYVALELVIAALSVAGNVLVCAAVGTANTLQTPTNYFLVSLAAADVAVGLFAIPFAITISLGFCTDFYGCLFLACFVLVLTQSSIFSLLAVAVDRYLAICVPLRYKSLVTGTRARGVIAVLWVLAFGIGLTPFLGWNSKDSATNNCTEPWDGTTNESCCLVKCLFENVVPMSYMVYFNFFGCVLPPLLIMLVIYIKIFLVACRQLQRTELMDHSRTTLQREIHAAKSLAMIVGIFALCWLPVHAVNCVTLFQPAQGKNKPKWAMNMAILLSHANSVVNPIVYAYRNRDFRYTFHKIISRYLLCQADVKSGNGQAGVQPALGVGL

Consider `CC(CNC(=O)c1nc(N[C@@H](C)c2ccccn2)nc2ccsc12)Oc1cccnc1` (stereo partly drawn) [Example Z77, 2-(((S)-1-(Pyridin-2-yl)ethyl)amino)-N-(2-(pyridin-3-yloxy)propyl)thieno[3,2-d]pyrimidine-4-carboxamide], for which the IC50 in experiment [1] and in experiment [2] was 100 to 500 nM each time. For the same compound, the Ratio in experiment [2] (setting [3]) came to 3.77.

With `O=C(NCC1CCN(Cc2ccccc2)CC1)c1nc(NCc2cncc(F)c2)nc2ccsc12` [Example Z68, N-((1-Benzylpiperidin-4-yl)methyl)-2-(((5-fluoropyridin-3-yl)methyl)amino)thieno[3,2-d]pyrimidine-4-carboxamide], the IC50 in experiment [1] and in experiment [2] was 50 to 100 nM each time.

`COCCNC(=O)c1nc(NCc2cnccn2)nc2ccsc12` [Example Z157, N-(2-Methoxyethyl)-2-((pyrazin-2-ylmethyl)amino)thieno[3,2-d]pyrimidine-4-carboxamide]: the IC50 in experiment [1] and in experiment [2] was > 500 nM each time. The Ratio in experiment [2] (setting [3]) is given as 3.17.

Consider `COc1ccc(CNC(=O)c2nc(NCc3cncc(C)c3)nc3ccsc23)cn1` [Example Z57, N-((6-Methoxypyridin-3-yl)methyl)-2-(((5-methylpyridin-3-yl)methyl)amino)thieno[3,2-d]pyrimidine-4-carboxamide], for which the IC50 in experiment [1] and in experiment [2] was 100 to 500 nM in each case. Moreover, in experiment [2] (setting [3]), the Ratio came to 1.41.

With `CC(=O)N1CC(CCNC(=O)c2nc(N[C@@H](C)c3cncc(F)c3)nc3ccsc23)C1` [Example Z539, (S)—N-(2-(1-Acetylazetidin-3-yl)ethyl)-2-((1-(5-fluoropyridin-3-yl)ethyl)amino)thieno[3,2-d]pyrimidine-4-carboxamide], the values for the IC50 in experiment [1] and in experiment [2] were 100 to 500 nM and 10 to 50 nM, respectively.

On to `C[C@H](Nc1nc(C(=O)NCc2ccc(C#N)nc2)c2sccc2n1)c1ccccn1` [Example Z64, (S)—N-((6-Cyanopyridin-3-yl)methyl)-2-((1-(pyridin-2-yl)ethyl)amino)thieno[3,2-d]pyrimidine-4-carboxamide], for which the half-inhibitory concentration (IC50) in experiment [1] and in experiment [2] was 100 to 500 nM throughout. For the same compound, in experiment [2] (setting [3]), the Ratio is listed as 1.94.

For the compound `O=C(NC[C@H]1CCCN1)c1nc(NCc2cncc(F)c2)nc2ccsc12` [Example Z369, (R)-2-(((5-Fluoropyridin-3-yl)methyl)amino)-N-(pyrrolidin-2-ylmethyl)thieno[3,2-d]pyrimidine-4-carboxamide], the half-inhibitory concentration (IC50) in experiment [1] and in experiment [2] was > 500 nM throughout. Moreover, in experiment [2] (setting [3]), the Ratio came to 2.26.

For the compound `COC[C@H](Nc1nc(C(=O)NC[C@@H](C)O)c2sccc2n1)c1cccnc1` [Example Z325, N—((R)-2-Hydroxypropyl)-2-(((R)-2-methoxy-1-(pyridin-3-yl)ethyl)amino)thieno[3,2-d]pyrimidine-4-carboxamide], the IC50 in experiment [1] and in experiment [2] was > 500 nM each time. For the same compound, the Ratio in experiment [2] (setting [3]) worked out at 1.87.

Turning to `COc1ccc(CNC(=O)c2nc(NCc3ccc(OC)nc3)nc3ccsc23)cn1` [Example Z12, N-((6-Methoxypyridin-3-yl)methyl)-2-(((6-methoxypyridin-3-yl)methyl)amino)thieno[3,2-d]pyrimidine-4-carboxamide], the IC50 in experiment [1] was 50 to 100 nM; in experiment [2] it was > 500 nM. Besides, the Ratio in experiment [2] (setting [3]) is given as 0.15.

As to `COc1ccc(NC(=O)c2nc(N[C@@H](C)c3ccccn3)nc3ccsc23)cn1` [Example Z65, (S)—N-(6-Methoxypyridin-3-yl)-2-((1-(pyridin-2-yl)ethyl)amino)thieno[3,2-d]pyrimidine-4-carboxamide], the IC50 was > 500 nM in experiment [1] and 50 to 100 nM in experiment [2]. The Ratio in experiment [2] (setting [3]) turned out to be 14.95.

Take `COc1cncc(CNc2nc(C(=O)N3CCCC3)c3sccc3n2)c1` [Example Z114, (2-(((5-Methoxypyridin-3-yl)methyl)amino)thieno[3,2-d]pyrimidin-4-yl)(pyrrolidin-1-yl)methanone]: the values for the IC50 in experiment [1] and in experiment [2] were > 500 nM and 100 to 500 nM, respectively. Further, in experiment [2] (setting [3]), the Ratio is on record as 5.15.

Take `C[C@H](Nc1nc(C(=O)N2CC[C@@H](S(C)(=O)=O)C2)c2sccc2n1)c1cccnc1` [Example Z262, ((R)-3-(Methylsulfonyl)pyrrolidin-1-yl)(2-(((S)-1-(pyridin-3-yl)ethyl)amino)thieno[3,2-d]pyrimidin-4-yl)methanone]: the IC50 in experiment [1] and in experiment [2] was > 500 nM in each case. In addition, in experiment [2] (setting [3]), the Ratio turned out to be 1.12.

As for `CC1(C)CCN(C(=O)c2nc(NCc3cncnc3)nc3ccsc23)C1` [Example Z7, (3,3-Dimethylpyrrolidin-1-yl)(2-((pyrimidin-5-ylmethyl)amino)thieno[3,2-d]pyrimidin-4-yl)methanone], the 50% inhibitory concentration (IC50) in experiment [1] and in experiment [2] was > 500 nM in each case. Further, in experiment [2] (setting [3]), the Ratio was found to be 0.57.

As for `C[C@H](Nc1nc(C(=O)NCCC2CCN(C(=O)OC(C)(C)C)C2)c2sccc2n1)c1cncc(F)c1` (stereo partly drawn) [Example Z365, tert-Butyl 3-(2-(2-(((S)-1-(5-fluoropyridin-3-yl)ethyl)amino)thieno[3,2-d]pyrimidine-4-carboxamido)ethyl)pyrrolidine-1-carboxylate], the values for the half-inhibitory concentration (IC50) in experiment [1] and in experiment [2] were 50 to 100 nM and 10 to 50 nM, respectively. Further, the Ratio in experiment [2] (setting [3]) is on record as 2.19.

For `C[C@H](Nc1nc(C(=O)NCC2CCOCC2)c2sccc2n1)c1ccccn1` [Example Z227, (S)-2-((1-(Pyridin-2-yl)ethyl)amino)-N-((tetrahydro-2H-pyran-4-yl)methyl)thieno[3,2-d]pyrimidine-4-carboxamide], the values for the half-maximal inhibitory concentration (IC50) in experiment [1] and in experiment [2] were 100 to 500 nM and 10 to 50 nM, respectively. Besides, in experiment [2] (setting [3]), the Ratio worked out at 4.59.

Take `COc1ccc(CNC(=O)c2nc(NC(C)c3ccccn3)nc3ccsc23)cn1` (stereo not shown) [Example Z49, N-((6-Methoxypyridin-3-yl)methyl)-2-((1-(pyridin-2-yl)ethyl)amino)thieno[3,2-d]pyrimidine-4-carboxamide]: the IC50 in experiment [1] and in experiment [2] was 100 to 500 nM throughout. Also, the Ratio in experiment [2] (setting [3]) stood at 0.62.

Regarding `O=C(c1nc(NCc2cccc(F)c2)nc2ccsc12)N1CCN(CCCc2ccccc2)CC1` [Example Z80, (2-((3-Fluorobenzyl)amino)thieno[3,2-d]pyrimidin-4-yl)(4-(3-phenylpropyl)piperazin-1-yl)methanone], the IC50 in experiment [1] and in experiment [2] was > 500 nM throughout. Also, in experiment [2] (setting [3]), the Ratio was 1.00.

In the case of `O=C(c1nc(NCc2cccc(F)n2)nc2ccsc12)N1CCCC1` [Example Z71, (2-(((6-Fluoropyridin-2-yl)methyl)amino)thieno[3,2-d]pyrimidin-4-yl)(pyrrolidin-1-yl)methanone], the concentration for half-maximal inhibition (IC50) in experiment [1] was > 500 nM; in experiment [2] it was 50 to 100 nM. In addition, in experiment [2] (setting [3]), the Ratio amounted to 12.97.

For the compound `Cc1cc2nc(N[C@@H](C)c3cncc(F)c3)nc(C(=O)N3CC(CN(C)C)C3)c2s1` [Example Z502, (S)-(3-((Dimethylamino)methyl)azetidin-1-yl)(2-((1-(5-fluoropyridin-3-yl)ethyl)amino)-6-methylthieno[3,2-d]pyrimidin-4-yl)methanone], the IC50 fell in the range of 50 to 100 nM in experiment [1] and 10 to 50 nM in experiment [2]. Further, the Ratio in experiment [2] (setting [4]) was found to be 4.89.

`C[C@H](Nc1nc(C(=O)NCC2CCN(Cc3ccccc3)CC2)c2sccc2n1)c1cccnc1` [Example Z27, (S)—N-((1-benzylpiperidin-4-yl)methyl)-2-((1-(pyridin-3-yl)ethyl)amino)thieno[3,2-d]pyrimidine-4-carboxamide]: the IC50 lay within 100 to 500 nM in experiment [1] and 50 to 100 nM in experiment [2]. The Ratio in experiment [2] (setting [3]) worked out at 1.97.

`Cc1cc2nc(N[C@@H](C)c3cncc(F)c3)nc(C(=O)NCCN3CCOCC3)c2s1` [Example Z372, (S)-2-((1-(5-Fluoropyridin-3-yl)ethyl)amino)-6-methyl-N-(2-morpholinoethyl)thieno[3,2-d]pyrimidine-4-carboxamide]: the IC50 in experiment [1] was > 500 nM; in experiment [2], 50 to 100 nM. Also, in experiment [2] (setting [3]), the Ratio was determined as 33.10.

As to `O=C(c1nc(NC(CO)c2cccnc2)nc2ccsc12)N1CCCC1` (stereo not shown) [Example Z270, (2-((2-Hydroxy-1-(pyridin-3-yl)ethyl)amino)thieno[3,2-d]pyrimidin-4-yl)(pyrrolidin-1-yl)methanone], the IC50 was > 500 nM in experiment [1] and 10 to 50 nM in experiment [2]. Further, the Ratio in experiment [2] (setting [3]) was found to be 27.81.

Regarding `Cc1cc2nc(N[C@@H](C)c3cccnc3)nc(C(=O)NC[C@@H]3CCOC3)c2s1` [Example Z387, 6-Methyl-2-(((S)-1-(pyridin-3-yl)ethyl)amino)-N—(((S)-tetrahydrofuran-3-yl)methyl)thieno[3,2-d]pyrimidine-4-carboxamide], the figures for the IC50 in experiment [1] and in experiment [2] were > 500 nM and 50 to 100 nM, respectively. Besides, the Ratio in experiment [2] (setting [3]) is reported as 20.10.

Turning to `C[C@H](Nc1nc(C(=O)NCCC2CNC2)c2sccc2n1)c1ccccn1` [Example Z432, (S)—N-(2-(Azetidin-3-yl)ethyl)-2-((1-(pyridin-2-yl)ethyl)amino)thieno[3,2-d]pyrimidine-4-carboxamide], the figures for the IC50 in experiment [1] and in experiment [2] were > 500 nM and 100 to 500 nM, respectively. In addition, the Ratio in experiment [2] (setting [4]) was 57.47.

With `C[C@H](Nc1nc(C(=O)N2CC[C@H](O)C2)c2sccc2n1)c1ccnc(F)c1` [Example Z407, (2-(((S)-1-(2-Fluoropyridin-4-yl)ethyl)amino)thieno[3,2-d]pyrimidin-4-yl)((S)-3-hydroxypyrrolidin-1-yl)methanone], the figures for the IC50 in experiment [1] and in experiment [2] were > 500 nM and 100 to 500 nM, respectively. Moreover, in experiment [2] (setting [4]), the Ratio is 8.11.

As to `CC(C)(C)OC(=O)N1CCN(C(=O)c2nc(NCc3cncc(F)c3)nc3ccsc23)C1` [Example Z135, tert-Butyl 3-(2-(((5-fluoropyridin-3-yl)methyl)amino)thieno[3,2-d]pyrimidine-4-carbonyl)imidazolidine-1-carboxylate], the figures for the IC50 in experiment [1] and in experiment [2] were > 500 nM and 100 to 500 nM, respectively. The Ratio in experiment [2] (setting [3]) was found to be 3.11.
